Source: patent US9675070B2 (BAYER CROPSCIENCE AG, priority 2013, dated 2017)
Counter-ions that a name gives are not always drawn.

Columns and labels:
[1] = test system: L1 larvae of the Australian sheep blowfly (Lucilia cuprina); experiment: Lucilia cuprina test (LUCICU); format: in vivo; conditions: application rate 100 ppm; minced horsemeat; after 2 days
Description: Lucilia cuprina Test (LUCICU) Solvent: dimethyl sulphoxide To produce a suitable preparation of active compound, 10 mg of active compound are mixed with 0.5 ml of dimethyl sulphoxide, and the concentrate is diluted with water to the desired concentration. About 20 L1 larvae of the Australian sheep blowfly (Lucilia cuprina) are transferred into a test vessel containing minced horsemeat and the active compound preparation of the desired concentration. After 2 days, the kill in % is determined. 100% means that all of the larvae have been killed; 0% means that none of the larvae have been killed.

[2] = test system: caterpillars of the armyworm (Spodoptera frugiperda); experiment: Spodoptera frugiperda spray test (SPODFR); format: in vivo; conditions: application rate 100 g/ha; maize leaf discs; after 7 days
Description: Spodoptera frugiperda—Spray Test (SPODFR)
(§1) Solvents: 78.0 parts by weight of acetone
(§2) • 1.5 parts by weight of dimethylformamide Emulsifier: alkylaryl polyglycol ether
(§3) To produce a suitable preparation of active compound, 1 part by weight of active compound is dissolved using the stated parts by weight of solvent and made up with water comprising an emulsifier concentration of 1000 ppm until the desired concentration is reached. To produce further test concentrations, the preparation is diluted with emulsifier-containing water.
Leaf discs of maize (Zea mays) are sprayed with an active compound preparation of the desired concentration and, after drying, populated with caterpillars of the armyworm (Spodoptera frugiperda).
After 7 days, the efficacy in % is determined. 100% means that all of the caterpillars have been killed; 0% means that none of the caterpillars have been killed.

[3] = test system: Tick nymphs (Amblyomma hebraeum); experiment: Amblyomma hebaraeum test (AMBYHE), tick nymph immersion; format: in vivo; conditions: application rate 100 ppm; immersion one minute; after 42 days
Description: Amblyomma hebaraeum Test (AMBYHE) Solvent: dimethyl sulphoxide To produce a suitable preparation of active compound, 10 mg of active compound are mixed with 0.5 ml of dimethyl sulphoxide, and the concentrate is diluted with water to the desired concentration. Tick nymphs (Amblyomma hebraeum) are placed into perforated plastic beakers and immersed in the desired concentration for one minute. The ticks are transferred on filter paper into a Petri dish and stored in a climate-controlled cabinet. After 42 days, the kill in % is determined. 100% means that all of the ticks have been killed; 0% means that none of the ticks have been killed.

[4] = test system: larvae of the mustard beetle (Phaedon cochleariae); experiment: Phaedon cochleariae spray test (PHAECO); format: in vivo; conditions: application rate 100 g/ha; Chinese cabbage leaf discs; after 7 days
Description: Phaedon cochleariae—Spray Test (PHAECO)
as §1, §2, §3
After 7 days, the efficacy in % is determined. 100% means that all of the beetle larvae have been killed; 0% means that none of the beetle larvae have been killed.

[5] = test system: adult houseflies (Musca domestica); experiment: Musca domestica test (MUSCDO); format: in vivo; conditions: application rate 100 ppm; after 2 days
Description: Musca domestica Test (MUSCDO) Solvents: dimethyl sulphoxide To produce a suitable preparation of active compound, 10 mg of active compound are mixed with 0.5 ml of dimethyl sulphoxide, and the concentrate is diluted with water to the desired concentration. Vessels containing a sponge treated with sugar solution and the active compound preparation of the desired concentration are populated with 10 adult houseflies (Musca domestica). After 2 days, the kill in % is determined. 100% means that all of the flies have been killed; 0% means that none of the flies have been killed.

[6] = test system: engorged adult female cattle ticks (Boophilus microplus); experiment: Boophilus microplus injection test (BOOPMI Inj); format: in vivo; conditions: application rate 20 μg/animal; injection into abdomen; assessed after 7 days
Description: Boophilus microplus Injection Test (BOOPMI Inj)
(§4) Solvent: dimethyl sulphoxide
To produce a suitable preparation of active compound, 10 mg of active compound are mixed with 0.5 ml of solvent, and the concentrate is diluted with solvent to the desired concentration.
1 μl of the active compound solution is injected into the abdomen of 5 engorged adult female cattle ticks (Boophilus microplus). The animals are transferred into dishes and kept in a climate-controlled room.
(§5) The activity is assessed after 7 days by laying of fertile eggs. Eggs whose fertility is not visible from the outside are stored in a climate-controlled cabinet until the larvae hatch after about 42 days. An efficacy of 100% means that none of the ticks has laid any fertile eggs; 0% means that all eggs are fertile.

[7] = test system: cattle ticks (Boophilus microplus) Parkhurst strain, SP-resistant; experiment: Boophilus microplus dip test (BOOPMI Dip); format: in vivo; conditions: application rate 100 ppm, assessed after 7 days
Description: Boophilus microplus—Dip Test (BOOPMI Dip)
Test animals: cattle ticks (Boophilus microplus) Parkhurst strain, SP-resistant
as §4
10 mg of active compound are dissolved in 0.5 ml of dimethyl sulphoxide. To prepare a suitable formulation, the active compound solution is diluted with water to the concentration desired in each case.
This active compound preparation is pipetted into tubes. 8-10 adult engorged female cattle ticks (Boophilus microplus) are transferred into a further tube with holes. The tube is immersed into the active compound formulation, and all ticks are completely wetted. After the liquid has run out, the ticks are transferred on filter discs into plastic dishes and stored in a climate-controlled room.
as §5

[8] = test system: adult cat fleas (Ctenocephalides felis); experiment: Ctenocephalides felis oral test (CTECFE); format: in vivo; conditions: application rate 100 ppm in citrated cattle blood; after 2 days
Description: Ctenocephalides felis-Oral Test ([…]) Solvent: dimethyl sulphoxide To produce a suitable preparation of active compound, 10 mg of active compound are mixed with 0.5 ml of dimethyl sulphoxide. Dilution with citrated cattle blood gives the desired concentration. About 20 unfed adult cat fleas (Ctenocephalides felis) are placed into a chamber which is closed at the top and bottom with gauze. A metal cylinder whose bottom end is closed with a parafilm is placed onto the chamber. The cylinder contains the blood/active ingredient preparation, which can be imbibed by the fleas through the parafilm membrane. After 2 days, the kill in % is determined. 100% means that all of the fleas have been killed; 0% means that none of the fleas have been killed.

[9] = test system: greenhouse red spider mite (Tetranychus urticae), OP-resistant; experiment: Tetranychus urticae spray test, OP-resistant (TETRUR); format: in vivo; conditions: application rate 100 g/ha; bean leaf discs; after 6 days
Description: Tetranychus urticae—Spray Test, OP-Resistant (TETRUR)
as §1, §2, §3
Discs of bean leaves (Phaseolus vulgaris) which are infested by all stages of the greenhouse red spider mite (Tetranychus urticae) are sprayed with an active compound preparation of the desired concentration.
After 6 days, the efficacy in % is determined. 100% means that all of the spider mites have been killed; 0% means that none of the spider mites have been killed.

[10] = log P determination by HPLC on reversed-phase column (C18), EEC Directive 79/831 Annex V.A8; format: physicochemical; conditions: method a): Agilent 1100 LC, Zorbax Eclipse Plus C18, acetonitrile/water with formic acid, gradient 10-95% in 4.25 min, 55° C.
Description: Agilent 1100 LC system; 50*4.6 Zorbax Eclipse Plus C18 1.8 micron; mobile phase A: acetonitrile (0.1% formic acid); mobile phase B: water (0.09% formic acid); linear gradient from 10% acetonitrile to 95% acetonitrile in 4.25 min, then 95% acetonitrile for a further 1.25 min; oven temperature 55° C.; flow rate: 2.0 ml/min. Mass detection is carried out via an Agilend MSD system.
^a)Unless indicated otherwise, the following method was used to determine the log P values and masses: The determination of the given log P values was carried out in accordance with EEC Directive 79/831 Annex V.A8 by HPLC (High Performance Liquid Chromatography) on a reversed-phase column (C18). Agilent 1100 LC system; 50*4.6 Zorbax Eclipse Plus C18 1.8 micron; mobile phase A: acetonitrile (0.1% formic acid); mobile phase B: water (0.09% formic acid); linear gradient from 10% acetonitrile to 95% acetonitrile in 4.25 min, then 95% acetonitrile for a further 1.25 min; oven temperature 55° C.; flow rate: 2.0 ml/min. Mass detection is carried out via an Agilend MSD system. ^b)Note for the alternative method for determining log P values and masses: The stated log P values were determined in accordance with EEC Directive 79/831 Annex V.A8 by HPLC (High Performance Liquid Chromatography) using a reversed-phase column (C18). Waters ACQUITY UPLC-MS system; 2.1*50 mm Zorbax Eclipse Plus C18 1.8 μm 600 bar; injection volume: 0.5 ul about 1000 ppm; mobile phase A: acetonitrile (0.1% formic acid); mobile phase B: water (0.085% formic acid); linear gradient from 10% acetonitrile to 95% acetonitrile in 1.5 min, then 95% acetonitrile for a further 0.5 min; oven temperature 60° C.; flow rate: 1.0 ml/min. Mass detection is carried out via a Waters SQD system.

chromatographic logP [10]	Compound	kill in % [1] [%]	efficacy in % [2] [%]	kill in % [3] [%]	efficacy in % [4] [%]	kill in % [5] [%]	efficacy (no laying of fertile eggs) [6] [%]	efficacy (no laying of fertile eggs) [7] [%]	kill in % [8] [%]	efficacy in % [9] [%]
	CCC(=O)NCc1cc(-c2cnn(-c3c(C(F)(F)F)c(C(F)(F)C(F)(F)F)nn3C)c2)ccc1F [Ic-2]	100	100	100	100	100	100	100	100	100
	Cn1nc(C(F)(F)C(F)(F)F)c(C(F)(F)F)c1-n1cc(-c2ccc(F)c(CNC(=O)C3CC3)c2)cn1 [Ic-12]	100	100	100	100	100	100		100	90
	CCC(=O)NCc1cc(-c2cn(-c3c(C(F)(F)F)c(C(F)(F)C(F)(F)F)nn3C)nn2)ccc1F [Ig-5]	100	100		100	100	100	100	100	
	Cn1nc(C(F)(F)C(F)(F)F)c(C(F)(F)F)c1-n1cc(-c2cccc(CNC(=O)C3CC3)c2)cn1 [Ic-17]	100		90	100	100	100	100	100	100
	CC(=O)NCc1cc(-c2cnn(-c3c(C(F)(F)F)c(C(F)(F)C(F)(F)F)nn3C)c2)ccc1F [Ic-4]	100	83	100	100	100	100	100	100	100
	CC(=O)NCc1cccc(-c2cnn(-c3c(C(F)(F)F)c(C(F)(F)C(F)(F)F)nn3C)c2)c1 [Ic-16]	100		100	100	100	100	100	100	90
4.37	Cn1nc(C(F)(F)C(F)(F)F)c(C(F)(F)F)c1-n1cc(-c2ccc(F)c(C#N)c2)cn1 [2-fluoro-5-[2′-methyl-5′-(pentafluoroethyl)-4′-(trifluoromethyl)-2′H-1,3′-bipyrazol-4-yl]benzonitrile]									
1.83	Cn1nc(C(F)(F)C(F)(F)F)c(C(F)(F)F)c1-n1cnc(-c2cccc(CN)c2)c1 [1-(3-{1-[1-methyl-3-(pentafluoroethyl)-4-(trifluoromethyl)-1H-pyrazol-5-yl]-1H-imidazol-4-yl}phenyl)methanamine hydrochloride]									
	CC(=O)NCc1cc(-c2cn(-c3c(C(F)(F)F)c(C(F)(F)C(F)(F)F)nn3C)nn2)ccc1F [Ig-1]	100			100	100	100	80	100	100
3.14	CCC(=O)NCc1cccc(-c2cn(-c3c(C(F)(F)F)c(C(F)(F)C(F)(F)F)nn3C)cn2)c1 [Ib-5, N-(3-{1-[1-methyl-3-(pentafluoroethyl)-4-(trifluoromethyl)-1H-pyrazol-5-yl]-1H-imidazol-4-yl}benzyl)propanamide]									
3.47	Cn1nc(C(F)(F)C(F)(F)F)c(C(F)(F)F)c1-n1cnc(I)c1 [5-(4-iodo-1H-imidazol-1-yl)-1-methyl-3-(pentafluoroethyl)-4-(trifluoromethyl)-1H-pyrazole]									

Compound	chromatographic logP [10]	kill in % [1] [%]	efficacy in % [2] [%]	kill in % [3] [%]	efficacy in % [4] [%]	kill in % [5] [%]	efficacy (no laying of fertile eggs) [6] [%]	efficacy (no laying of fertile eggs) [7] [%]	kill in % [8] [%]	efficacy in % [9] [%]
Cn1nc(C(F)(F)C(F)(F)F)c(C(F)(F)F)c1-n1cnc(-c2cccc(CNC(=O)OC(C)(C)C)c2)c1 [Ib-1, tert-butyl (3-{1-[1-methyl-3-(pentafluoroethyl)-4-(trifluoromethyl)-1H-pyrazol-5-yl]-1H-imidazol-4-yl}benzyl)carbamate]	4.21									
CCC(=O)NCc1cc(-c2cnn(-c3c(C(F)(F)F)c(C(F)(F)C(F)(F)F)nn3C)c2)ccc1F [Ib-8, N-{2-fluoro-5-[2′-methyl-5′-(pentafluoroethyl)-4′-(trifluoromethyl)-2′H-1,3′-bipyrazol-4-yl]benzyl}propanamide]	3.27	100			100		100		95	
